# Source: patent US20060235076A1, “Medicinal composition for treating infection with drug-resistant staphylococcus aureus” (priority 2003, published 2006)
# Read-outs that look alike come from different tables or passages of the source.
# How the values were obtained:
# Type in all cases: cell-based, Staphylococcus aureus
# [1] = system: MRSA COL and MRSA Strain No. 5; assay: Potentiating effect of various gallates for antibacterial activity of oxacillin (MIC by broth microdilution method and FIC); details: for FIC value: combination with oxacillin
# In short: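 Broth microdilution MIC per Japan Society of Chemotherapy method in cation-adjusted Mueller-Hinton broth (50 mg/l Ca, 25 mg/l Mg, 2% NaCl); inoculum 5×10^5 CFU/well from overnight 37° C culture. Gallate–oxacillin combinations evaluated by FIC.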
# MRSA and MSSA [2] = assay: Antibacterial activity of gallic acid, various gallates and multivalent phenol derivatives alone (agar plate dilution method, MIC); details: for MIC50 / MIC: Staphylococcus aureus
# In short: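 Agar plate dilution MIC per Japan Society of Chemotherapy, on Mueller-Hinton II agar supplemented with 50 mg/l Ca-ion, 25 mg/l Mg-ion and 2% NaCl. Inoculum grown overnight at 37 °C and diluted in saline to 10^6 CFU/ml. Compounds tested alone.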
# MRSA = assay: Potentiating effect of isoamyl gallate for the antibacterial activity of other β-lactams (agar plate dilution method, MIC)
# Procedure: (§1) According to the agar plate dilution method defined by Japan Society of Chemotherapy, MIC (Minimum inhibitory concentration) was determined. CAMHA was prepared by adding 50 mg/l of Ca-ion, 25 mg/l of Mg-ion, and 2% of NaCl to Mueller-Hinton II Agar (MHA), and it was used as a medium for use in the measurement of sensitivity. The bacterial liquid was incubated at 37° C. overnight and diluted to 10^6 CFU/ml with saline.
# MRSA and MSSA [3] = assay: Enhancing activity for the antibacterial activity of oxacillin by various gallates (agar plate dilution method, oxacillin MIC); details: MRSA and MSSA
# Procedure: as §1
# [4] = COL, compound alone, read-out: MIC
# [5] = MRSA #1, compound alone, read-out: MIC
# [6] = MRSA #2, compound alone, read-out: MIC
# [7] = MRSA #3, compound alone, read-out: MIC
# [8] = MRSA #4, compound alone, read-out: MIC
# [9] = MRSA #5, compound alone, read-out: MIC
# [10] = MRSA #6, compound alone, read-out: MIC
# [11] = MRSA #7, compound alone, read-out: MIC
# [12] = MRSA #8, compound alone, read-out: MIC
# [13] = MRSA #9, compound alone, read-out: MIC
# [14] = MRSA #10, compound alone, read-out: MIC
# [15] = MRSA #12, compound alone, read-out: MIC
# [16] = MRSA #16, compound alone, read-out: MIC
# [17] = MRSA #17, compound alone, read-out: MIC
# [18] = MRSA #18, compound alone, read-out: MIC
# [19] = MRSA #20, compound alone, read-out: MIC
# [20] = MRSA #21, compound alone, read-out: MIC
# [21] = MRSA #22, compound alone, read-out: MIC
# [22] = MRSA #24, compound alone, read-out: MIC
# [23] = MSSA #1003, compound alone, read-out: MIC
# [24] = MSSA #1010, compound alone, read-out: MIC
# [25] = MSSA #1020, compound alone, read-out: MIC
# [26] = MSSA #1023, compound alone, read-out: MIC
# [27] = MSSA #1029, compound alone, read-out: MIC
# [28] = MSSA #1032, compound alone, read-out: MIC
# [29] = RN4220, with isoamyl gallate 25 mg/ml
smiles,measurement,setting,value
"CC(C)CCOC(=O)c1cc(O)c(O)c(O)c1 [isoAmyl gallate, Isoamyl gallate]",FIC value,[1]; MRSA COL,0.25
same,FIC value,[1]; MRSA Strain No. 5,0.313
same,MIC50,MRSA and MSSA [2],62.5 µg/mL
same,MIC,MRSA and MSSA [2]; ATCC 6538 / MRSA / MSSA,62.5 µg/mL
same,MIC,MRSA and MSSA [2]; [4],62.5 µg/mL
same,MIC,MRSA and MSSA [2]; [5],62.5 µg/mL
same,MIC,MRSA and MSSA [2]; [6],62.5 µg/mL
same,MIC,MRSA and MSSA [2]; [7],62.5 µg/mL
same,MIC,MRSA and MSSA [2]; [8],62.5 µg/mL
same,MIC,MRSA and MSSA [2]; [9],62.5 µg/mL
same,MIC,MRSA and MSSA [2]; [10],62.5 µg/mL
same,MIC,MRSA and MSSA [2]; [11],62.5 µg/mL
same,MIC,MRSA and MSSA [2]; [12],62.5 µg/mL
same,MIC,MRSA and MSSA [2]; [13],62.5 µg/mL
same,MIC,MRSA and MSSA [2]; [14],31.3 µg/mL
same,MIC,MRSA and MSSA [2]; [15],62.5 µg/mL
same,MIC,MRSA and MSSA [2]; [16],62.5 µg/mL
same,MIC,MRSA and MSSA [2]; [17],62.5 µg/mL
same,MIC,MRSA and MSSA [2]; [18],62.5 µg/mL
same,MIC,MRSA and MSSA [2]; [19],62.5 µg/mL
same,MIC,MRSA and MSSA [2]; [20],62.5 µg/mL
same,MIC,MRSA and MSSA [2]; [21],125 µg/mL
same,MIC,MRSA and MSSA [2]; [22],125 µg/mL
same,MIC,MRSA and MSSA [2]; [23],125 µg/mL
same,MIC,MRSA and MSSA [2]; [24],62.5 µg/mL
same,MIC,MRSA and MSSA [2]; [25],62.5 µg/mL
same,MIC,MRSA and MSSA [2]; [26],62.5 µg/mL
same,MIC,MRSA and MSSA [2]; [27],62.5 µg/mL
same,MIC,MRSA and MSSA [2]; [28],62.5 µg/mL
same,Ampicillin MIC,MRSA; [29],63 µg/mL
same,Cefapirin MIC,MRSA; [29],63 µg/mL
same,effects of the combination use with other β-lactams,"MRSA; with penicillin G, cefoxitin, ampicillin, and cefapirin",excellent effects of the combination use
same,effect of combination use with oxacillin (words),MRSA and MSSA [3],potent effects of the combination use
"CC(C)COC(=O)c1cc(O)c(O)c(O)c1 [isoButyl gallate, isobutyl gallate]",effect of the combination use with oxacillin by FIC values,[1]; COL Strain and Strain No. 5,most potent effect of the combination use
same,FIC value,[1]; MRSA COL,0.129
same,FIC value,[1]; MRSA Strain No. 5,0.266
same,MIC50,MRSA and MSSA [2],125 µg/mL
same,MIC,MRSA and MSSA [2]; ATCC 6538 / MRSA / MSSA,125 µg/mL
same,MIC,MRSA and MSSA [2]; [4],125 µg/mL
same,MIC,MRSA and MSSA [2]; [5],125 µg/mL
same,MIC,MRSA and MSSA [2]; [6],62.5 µg/mL
same,MIC,MRSA and MSSA [2]; [7],125 µg/mL
same,MIC,MRSA and MSSA [2]; [8],125 µg/mL
same,MIC,MRSA and MSSA [2]; [9],125 µg/mL
same,MIC,MRSA and MSSA [2]; [10],62.5 µg/mL
same,MIC,MRSA and MSSA [2]; [11],125 µg/mL
same,MIC,MRSA and MSSA [2]; [12],125 µg/mL
same,MIC,MRSA and MSSA [2]; [13],62.5 µg/mL
same,MIC,MRSA and MSSA [2]; [14],62.5 µg/mL
same,MIC,MRSA and MSSA [2]; [15],125 µg/mL
same,MIC,MRSA and MSSA [2]; [16],125 µg/mL
same,MIC,MRSA and MSSA [2]; [17],125 µg/mL
same,MIC,MRSA and MSSA [2]; [18],125 µg/mL
same,MIC,MRSA and MSSA [2]; [19],125 µg/mL
same,MIC,MRSA and MSSA [2]; [20],125 µg/mL
same,MIC,MRSA and MSSA [2]; [21],125 µg/mL
same,MIC,MRSA and MSSA [2]; [22],125 µg/mL
same,MIC,MRSA and MSSA [2]; [23],125 µg/mL
same,MIC,MRSA and MSSA [2]; [24],125 µg/mL
same,MIC,MRSA and MSSA [2]; [25],125 µg/mL
same,MIC,MRSA and MSSA [2]; [26],125 µg/mL
same,MIC,MRSA and MSSA [2]; [27],62.5 µg/mL
same,MIC,MRSA and MSSA [2]; [28],125 µg/mL
same,effect of combination use with oxacillin (words),MRSA and MSSA [3],potent effects of the combination use
"CCCCCOC(=O)c1cc(O)c(O)c(O)c1 [Pentyl gallate, n-pentyl gallate]",FIC value,[1]; MRSA COL,0.375
same,FIC value,[1]; MRSA Strain No. 5,0.563
same,MIC alone,MRSA and MSSA [2]; MRSA #2,62.5 µg/mL
same,MIC50,MRSA and MSSA [2],62.5 µg/mL
same,MIC,"MRSA and MSSA [2]; ATCC 6538 / MRSA / MSSA, read-out: MIC alone",62.5 µg/mL
same,MIC,"MRSA and MSSA [2]; COL, read-out: MIC alone",62.5 µg/mL
same,MIC,"MRSA and MSSA [2]; MRSA #1, read-out: MIC alone",62.5 µg/mL
same,MIC,"MRSA and MSSA [2]; MRSA #2, read-out: MIC alone",67.5 µg/mL
same,MIC,"MRSA and MSSA [2]; MRSA #3, read-out: MIC alone",62.5 µg/mL
same,MIC,"MRSA and MSSA [2]; MRSA #4, read-out: MIC alone",62.5 µg/mL
same,MIC,"MRSA and MSSA [2]; MRSA #5, read-out: MIC alone",62.5 µg/mL
same,MIC,"MRSA and MSSA [2]; MRSA #6, read-out: MIC alone",62.5 µg/mL
same,MIC,"MRSA and MSSA [2]; MRSA #7, read-out: MIC alone",62.5 µg/mL
same,MIC,"MRSA and MSSA [2]; MRSA #8, read-out: MIC alone",62.5 µg/mL
same,MIC,"MRSA and MSSA [2]; MRSA #9, read-out: MIC alone",62.5 µg/mL
same,MIC,"MRSA and MSSA [2]; MRSA #10, read-out: MIC alone",62.5 µg/mL
same,MIC,"MRSA and MSSA [2]; MRSA #12, read-out: MIC alone",62.5 µg/mL
same,MIC,"MRSA and MSSA [2]; MRSA #16, read-out: MIC alone",62.5 µg/mL
same,MIC,"MRSA and MSSA [2]; MRSA #17, read-out: MIC alone",62.5 µg/mL
same,MIC,"MRSA and MSSA [2]; MRSA #18, read-out: MIC alone",62.5 µg/mL
same,MIC,"MRSA and MSSA [2]; MRSA #20, read-out: MIC alone",62.5 µg/mL
same,MIC,"MRSA and MSSA [2]; MRSA #21, read-out: MIC alone",62.5 µg/mL
same,MIC,"MRSA and MSSA [2]; MRSA #22, read-out: MIC alone",62.5 µg/mL
same,MIC,"MRSA and MSSA [2]; MRSA #24, read-out: MIC alone",62.5 µg/mL
same,MIC,"MRSA and MSSA [2]; MSSA #1003, read-out: MIC alone",62.5 µg/mL
same,MIC,"MRSA and MSSA [2]; MSSA #1010, read-out: MIC alone",62.5 µg/mL
same,MIC,"MRSA and MSSA [2]; MSSA #1020, read-out: MIC alone",62.5 µg/mL
same,MIC,"MRSA and MSSA [2]; MSSA #1023, read-out: MIC alone",62.5 µg/mL
same,MIC,"MRSA and MSSA [2]; MSSA #1029, read-out: MIC alone",62.5 µg/mL
same,MIC,"MRSA and MSSA [2]; MSSA #1032, read-out: MIC alone",62.5 µg/mL
same,effect of combination use with oxacillin (words),MRSA and MSSA [3],excellent potentiating effect
